The subject of one data set is S. sanguinis biofilm. The experiment in a line: Biofilm susceptibility assay (crystal violet). As to conditions: 24 h; for MBIC: S. sanguinis biofilm formation, at least 90% inhibition; for MBRC: S. sanguinis one-day biofilm, at least 90% reduction. The data set is classed as cell-based, Streptococcus sanguinis ATCC10556. Here is the method: (§1) Streptococcus mutans UA159, Streptococcus gordonii DL1 and Streptococcus sanguinis ATCC10556 were obtained from the State Key Laboratory of Oral Diseases (Sichuan University, Chengdu, China). All strains were routinely cultured in brain heart infusion broth (BHI; Difco, Sparks, MD) under anaerobic conditions (5% CO2) at 37°C. For biofilm formation, bacteria were cultured in BHI broth supplied with 1% sucrose (designated BHIS). The effect of II-6s on S. mutans, S. gordonii, and S. sanguinis biofilm was examined by the microdilution method described previously. S. mutans, S. gordonii, and S. sanguinis (1 × 10^7 CFU/ml) respectively, were cultured in BHIS broth and II-6s (0.98 to 500 μg/ml) in 96-well microtiter plates for 24 h. A parallel study was also performed with BHIS as a negative control. After incubation, the culture supernatant and agent were removed, and each well was gently washed three times with phosphate-buffered saline (PBS), then fixed the adherent biofilm was fixed with methanol for 15 min, and stained with 0.1% (wt/vol) crystal violet (Sigma) for 5 min. The excess crystal violet stain in each well was rinsed away with PBS until the blank control wells were colorless. Finally, 200 μl of 95% ethanol was added to each well to dissolve the crystal violet attached to the biofilm. The plate was shaken at room temperature for 30 min, and the absorbance at 595 nm was recorded. To examine the effects of II-6s on mature biofilm, bacterial suspensions were inoculated into a 96-well microtiter plate containing BHIS and incubated at 37°C for 24 h. After biofilm developed, the supernatant from each well was decanted and planktonic cells were removed by washing with sterile PBS. Fresh BHI broth containing II-6s (0.98 to 500 μg/ml) was added to the one-day biofilm, and the plate was further incubated for 24 h. The control wells contained BHIS broth without II-6s. Similarly, the biofilm was fixed, stained, washed, and quantified as described above. […] The experiment was performed in triplicates and repeated at least three times.

Details of data set [1]: method as in PMID 29355409. As to conditions: 0.12% CHX daily for a week, repeated every month; in 18 months; cited from earlier work.
The test system of data set [2] is 3-species streptococcal biofilms on bovine enamel slabs. The experiment in a line: Transverse microradiography of biofilm-induced demineralization on bovine enamel slabs. As to conditions: for biofilm-induced demineralization of enamel slabs (lesion depth, mineral loss): vs PBS control, 5 days, 5 min three times per day. The data set is classed as cell-based. The text has this: The labial dental crown of bovine incisors was cut into 5 mm × 5 mm × 4 mm by a diamond-coated band saw with continuous water cooling (Struers Minitom; Struers, Copenhagen, Denmark). These bovine specimens were embedded in polymethylmethacrylate and labial enamel surfaces were ground flat with water-cooled carborundum discs of waterproof silicon carbide paper (Struers) of various grits (1,000, 1,200, 2,400, 3,000 and 4,000). Then, enamel blocks were painted with two layers of acid-resistant nail varnish, leaving a 4 × 4 mm window exposed on the labial enamel surface. These specimens were measured by the […] hardness test (Zwick, Ulm, Germany) and those in the range from 314.6 to 382.4 Knoop Hardness Numbers were selected for the demineralization assessment. All the polished samples were sonicated in distilled water for 5 min to remove the residual abrasives and sterilized in an ethylene oxide sterilizer (AnproleneAN 74i, Andersen, Haw River, NC, USA).
An amount of 2 ml bacterial suspension solution contained S. mutans, S. gordonii and S. sanguinis (1 × 10^7 CFU/ml for each bacterium) was added to each well of a 12-well plate with a bovine sample, which was cultured anaerobically in a BHIS medium at 37°C (5% CO2) for 24 h. The specimens were treated with PBS, 0.2% of CHX or different concentrations of II-6s (15.63 to 125 μg/ml) for 5 days (5 min, three times per day). The pH of all experimental solutions was adjusted to 7.0 before treatment. All specimens were washed with PBS and refreshed with BHIS after every exposure. After 5 days of incubation, samples were rinsed with distilled water to remove the remaining biofilms, then cut again and polished with waterproof silicon carbide abrasive papers (800–4,000 grit; Struers, Copenhagen, Denmark) to a thickness around 100 μm. […] Quantitative data of mineral loss and lesion depth were acquired by a calibrated analysis system TMR2006 (Inspektor Research Systems BV, Netherlands). […]

For another data set, the system named is S. mutans biofilm. The experiment in a line: Biofilm susceptibility assay (crystal violet). Particulars: 24 h; for MBIC: S. mutans biofilm formation, at least 90% inhibition; for MBRC: S. mutans one-day biofilm, at least 90% reduction. The data set is classed as cell-based, Streptococcus mutans UA159. Here is the method: as §1
For the next data set, the system named is S. gordonii biofilm. In words: Biofilm susceptibility assay (crystal violet). As to conditions: 24 h; for MBIC: S. gordonii biofilm formation, at least 90% inhibition; for MBRC: S. gordonii one-day biofilm, at least 90% reduction. The data set is classed as cell-based, Streptococcus gordonii DL1. Here is the method:
as §1

A short description of data set [3]: In vitro cytotoxicity assay (CCK-8). The data set is classed as cell-based, human. As to conditions: human, 5 min exposure. Here is the method:
(§2) The cytotoxicity of II-6s was evaluated by the Cell Counting Kit-8 (CCK-8; Dojindo, Kumamoto, Japan) assay as described by Park et al.. Human gingival epithelial cells (HGE), human oral keratinocytes (HOK) and macrophages RAW264.7 (RAW264.7) were provided by the State Key Laboratory of Oral Diseases, Sichuan University, China. HGE, HOK and RAW264.7 were grown in Dulbecco’s modified Eagle’s medium (DMEM; GibcoTM, Invitrogen, Carlsbad, CA, USA) supplemented with 10% fetal bovine serum (FBS; Invitrogen) and 1% penicillin–streptomycin solution (Invitrogen) and cultured at 37°C in a humidified atmosphere containing 5% CO2. All cells were inoculated into 96 well plates at a density of 1 × 10^4 cells per well for 24 h and then treated with II-6s (0.98 to 500 μg/ml) for 5 min or 24 h. The positive control was treated with CHX (0.98 to 500 μg/ml) at the same time. After treatment, the wells were washed with sterile PBS and fresh medium was added. 10 μl of CCK-8 solution (10 μl) was added to each well and incubated for 1.5 h. The absorbance of each well was measured at the wavelength of 450 nm against a blank which contained medium only. Cell viability was calculated according to the following formula: percent viability = (A450 of treated group − A450 of blank control)/(A450 of negative control − A450 of blank control) × 100%. The experiment was conducted in triplicates and repeated three times.

The test system of data set [4] is human oral keratinocytes (HOK). In words: In vitro cytotoxicity assay (CCK-8). The data set is classed as cell-based. Particulars: 24 h exposure. Here is the method: as §2
Data set [5] concerns Human gingival epithelial cells (HGE). In words: In vitro cytotoxicity assay (CCK-8). The data set is classed as cell-based. As to conditions: 24 h exposure. The protocol: as §2
Data set [6] deals with methicillin-resistant Staphylococcus aureus (MRSA). The arrangement: method as in PMID 30940910. As to conditions: cited from earlier work.

A value given as a limit tells only on which side of the number the result lay.

The values that follow come from article PMC8018465, “Antimicrobial activities of a small molecule compound II-6s against oral streptococci” (Journal of Oral Microbiology, 2021).

In general, IC50 refers to the concentration that gives 50% inhibition.

For `[H]/N=C(\N/C(=N/[H])NCCCCCCNC(=N)NC(=N)Nc1ccc(Cl)cc1)Nc1ccc(Cl)cc1` [CHX, Chlorhexidine digluconate, reference compound], the MBIC with S. sanguinis biofilm was 1.95 µg/mL; in the data set on S. mutans biofilm, 0.98 µg/mL; in the data set with S. gordonii biofilm, 3.91 µg/mL. Moreover, the MBRC with S. sanguinis biofilm stood at 3.91 µg/mL; in the data set on S. mutans biofilm it was 62.50 µg/mL; with S. gordonii biofilm, 15.63 µg/mL. For the same compound, the “patients at high caries risk reduced to moderate or low risk” value in data set [1] was “approximately 70%”. Also, the “biofilm-induced demineralization of enamel slabs (lesion depth, mineral loss)” value in data set [2] is on record as “significantly reduced the demineralization”.
In the case of `CC(C)(Cc1ccc2ccccc2c1)NC[C@H](O)CNc1cc(C(F)(F)F)cc(C(F)(F)F)c1` [II-6s, (S)-1-((3,5-bis(trifluoromethyl)phenyl)amino)-3-((2-methyl-1-(naphthalen-2-yl)propan-2-yl)amino)propan-2-ol], the concentration for half-maximal inhibition (IC50) at 5 min in data set [3] (human gingival epithelial cells (HGE)) and in data set [3] (human oral keratinocytes (HOK)) was above 125 mg/L each time. For the same compound, the “IC50 (cytotoxicity), compared with CHX” value in [4] and in data set [5] was “higher than that of CHX” throughout. Also, the MBIC in the data set on S. sanguinis biofilm, in the data set on S. mutans biofilm and in the data set on S. gordonii biofilm was 3.91 µg/mL throughout. In addition, the MBRC is 3.91 µg/mL with S. sanguinis biofilm, 62.50 µg/mL with S. mutans biofilm and 3.91 µg/mL in the data set on S. gordonii biofilm. In data set [2] (II-6s 31.25 to 125 μg/ml, vs 0.2% of CHX), the “inhibitory effect on biofilm-induced demineralization” value is “equivalent inhibitory effect on the biofilm-induced demineralization as compared to 0.2% of CHX”. In data set [2], the “biofilm-induced demineralization of enamel slabs (lesion depth, mineral loss)” value is reported as “significantly reduced the demineralization”. Further, the “antimicrobial activity against MRSA” value in data set [6] was “decent antimicrobial activity”.
